The values that follow are results of earlier work, collected in US20210347751A1, “METHOD FOR EFFICIENT EXTRACTION OF PLANT ANTHOCYANIDIN” (priority 2018, published 2021).

Where two headings read alike, the source gives them in different places.

The conditions of series [1]: in vivo.

With Anthocyanins, the “bioavailability in the human body” value in series [1] is recorded as “almost zero”.
For the molecule `[Cl-].[K+]` [potassium chloride], the Water solubility is, setting by setting: (10° C.) 31.2 gram/100 g of water; (20° C.) 34.2 gram/100 g of water; (30° C.) 37.2 gram/100 g of water; (40° C.) 40.1 gram/100 g of water; (60° C.) 45.8 gram/100 g of water; (70° C.) 48.8 gram/100 g of water. Besides, the Water solubility (80° C.) is 51.3 gram/100 g of water, the Water solubility (90° C.) is 53.9 gram/100 g of water and the Water solubility (100° C.) is 56.3 gram/100 g of water.
